This note sets out measurements from the NIST ThermoML archive (doi:10.1016/j.fluid.2006.01.024).

Data set [1] in a line: refractive index (Na D-line) (dimensionless). Particulars: 298.2 K; 101.33 kPa; Liquid; Abbe refractometer.
The conditions of data set [2]: 298.2 K; 101.33 kPa; Liquid; Vibrating tube method.
A short description of data set [3]: Boiling temperature at pressure P. Particulars: 101.33 kPa; Liquid.

SMILES strings stand for the structures. ± gives the expanded uncertainty stated by the source.

Take `CCO` [ethanol]: the refractive index (commonly a measure of how strongly the sample bends light) in data set [1] is 1.3595 ± 0.0015. Besides, in data set [2], the mass density (usually mass per unit of volume) is on record as 785.2 ± 0.2 kg/m3. In data set [3], the “Boiling temperature at pressure P” value stood at 78.00 ± 0.4 °C.

Consider `C1CC[C@H]2CCCC[C@@H]2C1` [trans-decahydronaphthalene], for which the refractive index in data set [1] was 1.4682 ± 0.0016. Also, in data set [2], the mass density amounted to 868.25 ± 0.15 kg/m3. Moreover, the “Boiling temperature at pressure P” value in data set [3] was determined as 187.20 ± 0.4 °C.
